From US7384934B2, “Piperazine substituted aryl benzodiazepines” (Eli Lilly and Company, priority 2002, dated 2008) come the findings set out here.

Where a name gives a salt, the structure may show the parent alone.

For the assay, the target named is T1, Dopamine D2 receptor (Homo sapiens, UniProt P14416).
T1 construct: purchased Receptor Biology (now owned by NEN) RBHD2CM
Put plainly: Dopamine D2 receptor binding assay ([125I]iodospiperone). Conditions: relative Ki scale of Table 5; read-out: Relative D2 Receptor Binding Affinity Ki. The method, then:
The assay buffers used are 50 mM Tris-HCl pH 7.4, 120 mM NaCl, 5 mM KCl, 5 mM MgCl2, 1 mM EDTA for the Dopamine D2s receptor binding assay. […] The membranes used are from Receptor Biology (now owned by NEN), Cat # RBHD2CM for the D2 receptor.
Compounds are obtained as 10 mM stocks in 100% DMSO. They are diluted to 1 mM in 100% DMSO by adding 180 μL DMSO to 20 μL of stock in 96 well plates using a multidrop. […] This is done using a TECAN robot.
The radioligand is diluted in assay buffer to provide 0.1 nM for the D2 assay. Each vial of membranes is diluted up to 92 mL in assay buffer. The final assay volume is 250 μL consisting of 210 μl of diluted membranes, 20 μL of compound or 10% DMSO for total binding, and 20 μL of diluted radioligand. The compounds are transferred from drug dilution plates into coming 96 well assay plates using a 96 well Multimek pipettor. Radioligand and membranes are added to assay plates using multidrop pipettors. Non-specific binding is determined in wells containing a final concentration of 5 μM haloperidol. The final drug concentration range in half logs is from 10 μM down to 0.1 nM.
After addition of drug, membrane, and ligand, the plates are incubated for 2 hours at room temperature. During this time 96 well Millipore filter plates (MAFBNOB50) are soaked for a least 30 minutes with 200 μL per well of 0.5% polyethyleneimine.
The 0.5% PEI is removed from filterplate wells using a TiterTek MAP aspirator and 200 μL of the incubation mixture is transferred from the incubation plate to the filterplate after mixing. This transfer is done using the 96 tip Mutimek pipettor. After transfer to the filterplate filterplates are extracted and ished twice with 220 μL per well of cold buffer on the MAP aspirator. The peel away bottoms are removed from the filterplates and 60 μL per well of microscint 20 scintillation fluid is added per well using a multidrop. […]

T1 sequence (P14416 1-414 isoform P14416-2): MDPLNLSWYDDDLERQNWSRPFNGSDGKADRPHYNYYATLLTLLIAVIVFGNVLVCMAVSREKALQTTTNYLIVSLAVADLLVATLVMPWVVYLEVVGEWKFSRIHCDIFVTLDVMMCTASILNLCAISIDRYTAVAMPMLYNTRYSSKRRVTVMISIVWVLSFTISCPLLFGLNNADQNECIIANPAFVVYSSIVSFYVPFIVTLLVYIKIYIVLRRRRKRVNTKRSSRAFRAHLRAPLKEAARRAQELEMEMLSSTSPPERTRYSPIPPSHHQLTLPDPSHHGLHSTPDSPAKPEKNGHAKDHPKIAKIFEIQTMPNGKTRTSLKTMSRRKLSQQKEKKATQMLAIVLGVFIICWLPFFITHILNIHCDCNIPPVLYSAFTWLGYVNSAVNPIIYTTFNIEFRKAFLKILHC

For orientation: Ki means a dissociation constant, usually derived from enzyme kinetics or from competition with a known ligand. With `COC(C)C[C@H]1CN(C2=Nc3ccccc3Nc3sc(C)cc32)CCN1` (mixture of isomers) [Example 359, 10-[3(S)-(2(S)-Methoxypropyl)-piperazin-1-yl]-2-methyl-4H-3-thia-4,9-diazabenzo[f]azulene and 10-[3(S)-(2(R)-Methoxypropyl)-piperazin-1-yl]-2-methyl-4H-3-thia-4,9-diazabenzo[f]azulene], the Ki was 10 to 100 nM.

`COC(C)C[C@H]1CN(C2=Nc3ccccc3Nc3sc(C)cc32)CCN1C` (mixture of isomers) [Example 360, 10-[3(S)-(2(S)-Methoxypropyl)-4-methylpiperazin-1-yl]-2-methyl-4H-3-thia-4,9-diazabenzo[f]azulene dihydrochloride and 10-[3(S)-(2(R)-Methoxypropyl)-4-methylpiperazin-1-yl]-2-methyl-4H-3-thia-4,9-diazabenzo[f]azulene dihydrochloride]: the Ki was in the range of 100 to 1000 nM.

For the molecule `COC(C)C[C@H]1CN(C2=Nc3ccccc3Nc3sc(C(C)C)nc32)CCN1` (mixture of isomers) [Example 361, 10-[3(S)-(2(S)-Methoxy-propyl)-piperazin-1-yl]-2-isopropyl-4H-3-thia-1,4,9-triazabenzo[f]azulene and 10-[3(S)-(2(R)-Methoxy-propyl)-piperazin-1-yl]-2-isopropyl-4H-3-thia-1,4,9-triazabenzo[f]azulene], the Ki is less than 10 nM.

On to `COCC[C@H]1CN(C2=Nc3ccccc3Nc3cc(C)ccc32)CCN1` [Example 198, (S)-3-Methyl-11-[3-(2-methoxy-ethyl)-piperazin-1-yl]-5H-dibenzo[b,e][1,4]diazepine], for which the inhibition constant (Ki) is more than 1000 nM.

On to `COCC[C@H]1CN(C2=Nc3ccccc3Nc3sc(C)cc32)CCN1` [Example 242, (S)-10-[3-(2-Methoxyethyl)-piperazin-1-yl]-2-methyl-4H-3-thia-4,9-diazabenzo[f]azulene hydrochloride], for which the Ki lay in the range of 10 to 100 nM.

Take `COCC[C@H]1CN(C2=Nc3ccccc3Nc3sc(C)cc32)CCN1C` [Example 267, (s)-10-[3-(2-Methoxyethyl)-4-methylpiperazin-1-yl]-2-methyl-4H-3-thia-4,9-diazabenzo[f]azulene dihydrochloride]: the Ki lay within 10 to 100 nM.

Turning to `CCOCC[C@H]1CN(C2=Nc3ccccc3Nc3sc(C)cc32)CCN1C` [Example 268, (S)-10-[3-(2-Ethoxyethyl)-4-methyl-piperazin-1-yl]-2-methyl-4H-3-thia-4,9-diazabenzo[f]azulene dihydrochloride], the Ki lay within 10 to 100 nM.

Turning to `Cc1cc2c(s1)Nc1ccccc1N=C2N1CCN(C)[C@@H](CCOc2ccccc2)C1` [Example 269, (S)-10-[4-Methyl-3-(2-phenoxyethyl)piperazin-1-yl]-2-methyl-4H-3-thia-4,9-diazabenzo[f]azulene dihydrochloride], the Ki lay within 10 to 100 nM.

For `CCOCC[C@H]1CN(C2=Nc3ccccc3Nc3sc(C)nc32)CCN1` [Example 302, (S)-10-[3-(2-Ethoxyethyl)-piperazin-1-yl]-2-methyl-4H-3-thia-1,4,9-triazabenzo[f]azulene], the Ki lay in the range of 10 to 100 nM.

Take `CCc1nc2c(s1)Nc1ccccc1N=C2N1CCN[C@@H](CCOC)C1` [Example 303, (S)-10-[3-(2-Methoxy-ethyl)-piperazin-1-yl]-2-ethyl-4H-3-thia-1,4,9-triaza-benzo[f]azulene]: the Ki is less than 10 nM.

For the molecule `CCCc1nc2c(s1)Nc1ccccc1N=C2N1CCN[C@@H](CCOC)C1` [Example 304, (S)-10-[3-(2-Methoxy-ethyl)-piperazin-1-yl]-2-propyl-4H-3-thia-1,4,9-triaza-benzo[f]azulene], the inhibition constant (Ki) is less than 10 nM.

Consider `CCCCc1nc2c(s1)Nc1ccccc1N=C2N1CCN[C@@H](CCOC)C1` [Example 305, (S)-10-[3-(2-Methoxy-ethyl)-piperazin-1-yl]-2-butyl-4H-3-thia-1,4,9-triaza-benzo[f]azulene], for which the Ki is 10 to 100 nM.

Turning to `CCOCC[C@H]1CN(C2=Nc3ccccc3Nc3sc(C(C)C)nc32)CCN1` [Example 309, (S)-10-[3-(2-Ethoxyethyl)-piperazin-1-yl]-2-isopropyl-4H-3-thia-1,4,9-triazabenzo[f]azulene], the Ki lay in the range of 10 to 100 nM.

For the molecule `COCC[C@H]1CN(C2=Nc3ccccc3Nc3sc(CO)nc32)CCN1` [Example 312, (S)-10-[3-(2-Methoxy-ethyl)-piperazin-1-yl]-4H-3-thia-1,4,9-triaza-benzo[f]azulene-2-yl-methanol], the inhibition constant Ki was in the range of 100 to 1000 nM.

For the molecule `CCOC(=O)c1nc2c(s1)Nc1ccccc1N=C2N1CCN[C@@H](CCOC)C1` [Example 313, (S)-10-[3-(2-Methoxy-ethyl)-piperazin-1-yl]-4H-3-thia-1,4,9-triaza-benzo[f]azulene-2-carboxylic acid ethyl ester], the Ki was in the range of 100 to 1000 nM.

`COCC[C@H]1CN(C2=Nc3ccccc3Nc3sc(C(F)(F)F)nc32)CCN1` [Example 314, (S)-10-[3-(2-Methoxy-ethyl)-piperazin-1-yl]-2-trifluoromethyl-4H-3-thia-1,4,9-triaza-benzo[f]azulene]: the Ki was less than 10 nM.

`COCC[C@H]1CN(C2=Nc3ccccc3Nc3sc(C(F)F)nc32)CCN1` [Example 316, (S)-10-[3-(2-Methoxy-ethyl)-piperazin-1-yl]-2-difluoromethyl-4H-3-thia-1,49-triaza-benzo[f]azulene]: the Ki is less than 10 nM.

On to `COCC[C@H]1CN(C2=Nc3ccccc3Nc3sc(CCC(F)(F)F)nc32)CCN1` [Example 318, (S)-10-[3-(2-Methoxy-ethyl)-piperazin-1-yl]-2-(3,3,3-trifluoro-propyl)-4H-3-thia-1,4,9-triaza-benzo[f]azulene dihydrochloride], for which the Ki is less than 10 nM.

Turning to `Cc1nc2c(s1)Nc1ccccc1N=C2N1CCN(C)[C@@H](CCO)C1` [Example 319, (S)-2-[1-Methyl-4-(2-methyl-4H-3-thia-1,4,9-triazabenzo[f]azulene-10-yl)piperazin-2-yl]ethanol dihydrochloride], the Ki is 10 to 100 nM.

For `COCC[C@H]1CN(C2=Nc3ccccc3Nc3sc(C)nc32)CCN1C` [Example 320, (S)-10-[3-(2-Methoxyethyl)-4-methylpiperazin-1-yl]-2-methyl-4H-3-thia-1,4,9-triazabenzo[f]azulene dihydrochloride], the Ki was in the range of 10 to 100 nM.

For the molecule `CCOCC[C@H]1CN(C2=Nc3ccccc3Nc3sc(C)nc32)CCN1C` [Example 321, (S)-10-[3-(2-Ethoxyethyl)-4-methyl-piperazin-1-yl]-2-methyl-4H-3-thia-1,4,9-triazabenzo[f]azulene dihydrochloride], the Ki was 100 to 1000 nM.

Take `CCc1nc2c(s1)Nc1ccccc1N=C2N1CCN(C)[C@@H](CCOC)C1` [Example 322, (S)-10-[3-(2-Methoxy-ethyl)-4-methyl-piperazin-1-yl]-2-ethyl-4H-3-thia-1,49-triaza-benzo[f]azulene dihydrochloride]: the inhibition constant (Ki) fell in the range of 10 to 100 nM.

Regarding `CCCc1nc2c(s1)Nc1ccccc1N=C2N1CCN(C)[C@@H](CCOC)C1` [Example 323, (S)-10-[3-(2-Methoxy-ethyl)-4-methyl-piperazin-1-yl]-2-propyl 4H-3-thia-1,4,9-triaza-benzo[f]azulene dihydrochloride], the Ki lay in the range of 10 to 100 nM.

With `CCCCc1nc2c(s1)Nc1ccccc1N=C2N1CCN(C)[C@@H](CCOC)C1` [Example 324, (S)-10-[3-(2-Methoxy-ethyl)-4-methyl-piperazin-1-yl]-2-butyl 4H-3-thia-1,4,9-triaza-benzo[f]azulene], the Ki was in the range of 10 to 100 nM.

Turning to `CC(C)c1nc2c(s1)Nc1ccccc1N=C2N1CCN(C)[C@@H](CCO)C1` [Example 326, (S)-2-[4-(2-Isopropyl-4H-3-thia-1,49-triazabenzo[f]azulene-10-yl)-1-methylpiperazin-2-yl]ethanol], the inhibition constant (Ki) is less than 10 nM.

For the molecule `CCOCC[C@H]1CN(C2=Nc3ccccc3Nc3sc(C(C)C)nc32)CCN1C` [Example 328, (S)-10-[3-(2-Ethoxyethyl)-4-methylpiperazin-1-yl]-2-isopropyl-4H-3-thia-1,4,9-triazabenzo[f]azulene dihydrochloride], the Ki was in the range of 10 to 100 nM.

For `COCC[C@H]1CN(C2=Nc3ccccc3Nc3sc(C4CCCC4)nc32)CCN1C` [Example 331, (S)-10-[3-(2-Methoxyethyl)-4-methylpiperazin-1-yl]-2-cyclopentyl 4H-3-thia-1,4,9-triazabenzo[f]azulene dihydrochloride], the Ki fell in the range of 10 to 100 nM.

As for `CCOC(=O)c1nc2c(s1)Nc1ccccc1N=C2N1CCN(C)[C@@H](CCOC)C1` [Example 333, (S)-10-[3-(2-Methoxy-ethyl)-4-methyl-piperazin-1-yl]-4H-3-thia-1,4,9-triaza-benzo[f]azulene-2-carboxylic acid ethyl ester dihydrochloride], the Ki is 100 to 1000 nM.

Take `COCC[C@H]1CN(C2=Nc3ccccc3Nc3sc(C(F)(F)F)nc32)CCN1C` [Example 334, (S)-10-[3-(2-Methoxy-ethyl)-4-methyl-piperazin-1-yl]-2-trifluoromethyl-4H-3-thia-1,4,9-triaza-benzo[f]azulene]: the Ki was less than 10 nM.
